Experimental data as given in patent US20210361741A1, “NANOPARTICLE FORMULATIONS AND METHODS OF USE FOR ALPHA CONNEXIN C-TERMINAL PEPTIDES” (FIRSTSTRING RESEARCH, INC., priority 2018, published 2021).

Test system: U87MG GBM cells
Test: Xenograft GBM mouse model
Format: in vivo
Conditions: TMZ alone, 7.5 mg/kg i.p. every other day
Experimental: Effect of αCT1-NP in a xenograft GBM mouse model. To assess the in vivo safety and efficacy of αCT1-NPs, a mouse xenograft model of GBM was employed U87MG GBM cells were cultured and 1×10^6 cells were mixed with 100 μL of Matrigel® Matrix and subcutaneously injected into the flanks of SCID/beige anesthetized mice using 23 gauge needles. After 8 days, mice were divided into 2 groups: (i) TMZ alone, and (ii) TMZ+αCT1 particles. The treatment regimen was as follows: TMZ (7.5 mg/kg) was administered by intraperitoneal injection with an insulin syringe every other day starting on day 8 for both groups 1 and 2 mice. αCT1 particles were reconstituted in 1×PBS from −80° C. storage and 100 uL aliquots were prepared and stored at −20° C. The concentration of αCT1 delivered in 1 dose of particles (100 uL) was approximately 8 μM at 1.2 mg particles/kg of mouse body weight. αCT1 particles were delivered at the tumor growth site every other day starting on day 10 for group 2 mice using insulin syringes. Group 2 mice received a total of 6 injections of particles during the course of treatment. This treatment regimen continued for 13 days. Tumor sizes were measured every other day using a caliper. Tumor volume was calculated ((length×width2)/2).

Cn1nnc2c(C(N)=O)ncn2c1=O [TMZ, temozolomide]
tumor volume: no effect
